From US10988433B2, “Cyclohexyl GPR40 agonists for the treatment of type II diabetes” (Janssen Pharmaceutica NV, priority 2016, dated 2021) come the findings set out here.

The target in one assay is T1, rat GPR40 (Rattus norvegicus, UniProt Q8K3T4).
T1 construct: expressed in transfected cells
Description: GPR40 calcium flux assay, HEK293 cells stably expressing rat GPR40. The settings on record: transfected HEK293 cells stably expressing rat GPR40, Fluo 8 dye, read-out: rGPR40 Ca2+ Assay EC50. Type of assay: cell-based. As to the method:
(§1) Compounds were tested in a calcium flux assay using transfected HEK293 cells stably expressing either human GPR40 or rat GPR40. Human GPR40 expressing cells were cultured in DMEM-High Glucose media supplemented with 10% fetal bovine serum, 1×L-Glutamine, 1×Penicillin/Streptomycin and 500 μg/mL G418. Rat GPR40 expressing cells were cultured in DMEM-High Glucose media supplemented with 10% fetal bovine serum and 1 μg/mL puromycin. Cells were plated into poly-D-lysine coated 384-well plates and cultured overnight in a 37° C. humidified tissue culture incubator under 5% CO2/[…] atmosphere. On the day of the experiment, the culture media was replaced with assay buffer (HBSS, 20 mM HEPES, 0.1% BSA) and the cells incubated at 37° C. for 1 h. Calcium-sensitive fluorescent dye (Fluo 8 No-Wash Calcium Dye, ABD Bioquest) was then added and the cells incubated for another 30 min at 37° C. followed by 15 min at room temperature while protected from the light. The cell plate and a plate of diluted compounds of Formula (I) were loaded into a fluorescent plate reader that added compounds onto the cells while measuring the fluorescence intensity of each well. The plate reader recorded fluorescence intensity at 1 second intervals for 8 min and provided the data for analysis in an Excel format. EC50 values were calculated using Prism (GraphPad) software.
Background: Calcium assays in cells follow changes in intracellular calcium, usually with a dye or a luminescent sensor.

For the next assay, the target named is T2, human GPR40 (Homo sapiens, UniProt O14842).
T2 construct: expressed in transfected cells
T2 sequence (O14842 whole entry): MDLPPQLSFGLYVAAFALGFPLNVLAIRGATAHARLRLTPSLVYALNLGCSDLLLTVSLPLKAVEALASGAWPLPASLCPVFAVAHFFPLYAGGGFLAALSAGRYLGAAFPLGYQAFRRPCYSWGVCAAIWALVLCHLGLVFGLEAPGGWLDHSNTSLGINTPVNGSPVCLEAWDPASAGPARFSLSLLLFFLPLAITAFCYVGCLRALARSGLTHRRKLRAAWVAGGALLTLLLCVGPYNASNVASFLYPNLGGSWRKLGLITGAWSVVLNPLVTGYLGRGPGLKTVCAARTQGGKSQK
Description: GPR40 calcium flux assay, HEK293 cells stably expressing human GPR40. Type of assay: cell-based. The settings on record: transfected HEK293 cells stably expressing human GPR40, Fluo 8 dye, read-out: hGPR40 Ca2+ Assay EC50. The method, then: as §1

T1 sequence (Q8K3T4 whole entry): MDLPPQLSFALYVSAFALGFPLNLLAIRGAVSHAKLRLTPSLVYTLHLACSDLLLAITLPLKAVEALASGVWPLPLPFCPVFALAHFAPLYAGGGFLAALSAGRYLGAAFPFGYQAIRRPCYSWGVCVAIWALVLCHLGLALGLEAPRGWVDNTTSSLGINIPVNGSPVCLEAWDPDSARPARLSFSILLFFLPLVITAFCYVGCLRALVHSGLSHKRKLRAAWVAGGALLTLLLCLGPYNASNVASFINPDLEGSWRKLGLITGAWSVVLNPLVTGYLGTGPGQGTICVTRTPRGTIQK

As a reminder, the EC50 is the concentration needed to bring the measured effect to its halfway point. For `COc1ccc(F)c([C@H]2CC[C@H](/C=C/c3cccc([C@@H](CC(=O)O)C4CC4)c3)CC2)c1` [Cpd 28, (S)-3-cyclopropyl-3-(3-((E)-2-((1r,4S)-4-(2-fluoro-5-methoxyphenyl)cyclohexyl)vinyl)phenyl)propanoic acid], the concentration for a half-maximal effect (EC50) was 6.1 nM on rat GPR40 and 2.6 nM at human GPR40.

Regarding `COc1ccc(F)c([C@H]2CC[C@H](/C=C/c3cccc([C@H](C4CC4)C(C)(F)C(=O)O)c3)CC2)c1` (stereo partly drawn) [Cpd 72, (3S)-3-Cyclopropyl-2-fluoro-3-(3-((E)-2-((1r,4S)-4-(2-fluoro-5-methoxyphenyl)cyclohexyl)vinyl)phenyl)-2-methylpropanoic acid], the figures for the EC50 at rat GPR40 and at human GPR40 were 2.48 nM and 1.88 nM, respectively.

In the case of `COc1ccc(F)c([C@H]2CC[C@H](COc3cccc([C@H](C4CC4)[C@H](C)C(=O)O)c3)CC2)c1` [Cpd 52, (2S,3R)-3-cyclopropyl-3-(3-(((1r,4R)-4-(2-fluoro-5-methoxyphenyl)cyclohexyl)methoxy)phenyl)-2-methylpropanoic acid], the results for the EC50 at rat GPR40 and at human GPR40 were 0.4 nM and 0.2 nM, respectively.

With `COc1ccc(F)c([C@H]2CC[C@@H](COc3ccnc(C(CC(=O)O)C4CC4)c3)CC2)c1` (stereo partly shown) [Cpd 35, 3-Cyclopropyl-3-(4-(((1s,4s)-4-(2-fluoro-5-methoxyphenyl)cyclohexyl)methoxy)pyridin-2-yl)propanoic acid], the EC50 on rat GPR40 was found to be 5320 nM; on human GPR40 it was 1840 nM.

For the molecule `COc1cc([C@H]2CC[C@H](COc3cncc(C(CC(=O)O)C4CC4)c3)CC2)c(F)cn1` (stereo partly shown) [Cpd 22, 3-Cyclopropyl-3-(5-(((1r,4r)-4-(5-fluoro-2-methoxypyridin-4-yl)cyclohexyl)methoxy)pyridin-3-yl)propanoic acid], the results for the EC50 at rat GPR40 and at human GPR40 were 51.9 nM and 17.6 nM, respectively.

For the molecule `COc1ccc(F)c([C@H]2CC[C@H](COc3cccc([C@H](C4CC4)C(C)(F)C(=O)O)c3)CC2)c1` (stereo partly drawn) [Cpd 58, (3S)-3-Cyclopropyl-2-fluoro-3-(3-(((1r,4S)-4-(2-fluoro-5-methoxyphenyl)cyclohexyl)methoxy)phenyl)-2-methylpropanoic acid], the EC50 came out at 0.23 nM at rat GPR40 and 0.3 nM on human GPR40.

Regarding `COc1ccc(F)c([C@H]2CC[C@H](CNc3cccc([C@H](C4CC4)C(C)(F)C(=O)O)c3)CC2)c1` (stereo partly drawn) [Cpd 77, (3S)-3-Cyclopropyl-2-fluoro-3-(3-((((1r,4S)-4-(2-fluoro-5-methoxyphenyl)cyclohexyl)methyl)amino)phenyl)-2-methylpropanoic acid], the EC50 at rat GPR40 worked out at 10.4 nM; on human GPR40 it was 1.72 nM.

In the case of `COc1ccc(F)c([C@H]2CC[C@H](COc3cncc(C(CC(=O)O)C4CC4)c3)CC2)c1` (stereo partly shown) [Cpd 21, 3-Cyclopropyl-3-(5-(((1r,4r)-4-(2-fluoro-5-methoxyphenyl)cyclohexyl)methoxy)pyridin-3-yl)propanoic acid], the values for the EC50 at rat GPR40 and at human GPR40 were 35.3 nM and 12 nM, respectively.

As to `COc1ccc(F)c(C2=CCC(COc3cccc([C@H](C4CC4)[C@@](C)(F)C(=O)O)c3)CC2)c1` (stereo partly drawn) [Cpd 76, (2R,3S)-3-Cyclopropyl-2-fluoro-3-(3-((2′-fluoro-5′-methoxy-2,3,4,5-tetrahydro-[1,1′-biphenyl]-4-yl)methoxy)phenyl)-2-methylpropanoic acid], the concentration for a half-maximal effect (EC50) is 0.71 nM on rat GPR40 and 0.18 nM at human GPR40.

For `COc1ccc(F)c([C@H]2CC[C@H](COc3cc([C@H](CC(=O)O)C4CC4)ccn3)CC2)c1` [Cpd 26, (R)-3-cyclopropyl-3-(2-(((1r,4r)-4-(2-fluoro-5-methoxyphenyl)cyclohexyl)methoxy)pyridin-4-yl)propanoic acid], the EC50 on rat GPR40 amounted to 19.8 nM; on human GPR40, 10.9 nM.

With `COc1cc([C@H]2CC[C@H](COc3cccc([C@H](C4CC4)[C@](C)(F)C(=O)O)c3)CC2)c(F)cn1` [Cpd 63], the EC50 came to 86.7 nM on rat GPR40 and 32.6 nM at human GPR40.

Regarding `COc1cc([C@H]2CC[C@H](COc3cc(C(CC(=O)O)C4CC4)ccn3)CC2)c(F)cn1` (stereo partly shown) [Cpd 8, 3-Cyclopropyl-3-(2-(((1r,4r)-4-(5-fluoro-2-methoxypyridin-4-yl)cyclohexyl)methoxy)pyridin-4-yl)propanoic acid], the EC50 amounted to 1.4 nM at rat GPR40 and 0.5 nM at human GPR40.

Take `COc1ccc(F)c([C@H]2CC[C@H](COc3cc(C(CC(=O)O)C4CC4)ccn3)CC2)c1` (stereo partly shown) [Cpd 4, 3-Cyclopropyl-3-(2-(((1r,4r)-4-(2-fluoro-5-methoxyphenyl)cyclohexyl)methoxy)pyridin-4-yl) propanoic acid]: the EC50 on rat GPR40 was 2.6 nM; on human GPR40 it was 0.7 nM.

In the case of `COc1cc([C@H]2CC[C@H](COc3cccc([C@@H](CC(=O)O)C4CC4)c3)CC2)c(F)cn1` [Cpd 9, (S)-3-Cyclopropyl-3-(3-(((1r,4S)-4-(5-fluoro-2-methoxypyridin-4-yl)cyclohexyl)methoxy)phenyl)propanoic acid], the EC50 was determined as 2.8 nM on rat GPR40 and 0.5 nM at human GPR40.

As for `COc1cncc(C2CCC(COc3cc([C@@H](CC(=O)O)C4CC4)ccn3)CC2)n1` (stereo partly drawn) [Cpd 46, (S)-3-Cyclopropyl-3-(2-((4-(6-methoxypyrazin-2-yl)cyclohexyl)methoxy)pyridin-4-yl)propanoic acid], the EC50 at rat GPR40 is over 10000 nM; on human GPR40 it was 5800 nM.

As for `COc1ccc(F)c([C@H]2CC[C@@H](COc3cccc([C@@H](Cc4nnn[nH]4)C4CC4)c3)CC2)c1` [Cpd 39, 5-((S)-2-Cyclopropyl-2-(3-(((1s,4R)-4-(2-fluoro-5-methoxyphenyl)cyclohexyl)methoxy)phenyl)ethyl)-1H-tetrazole], the EC50 at rat GPR40 came to 3150 nM; on human GPR40 it was 600 nM.

As to `COc1ccnc(C2CCC(COc3cc([C@@H](CC(=O)O)C4CC4)ccn3)CC2)n1` (stereo partly drawn) [Cpd 49, (S)-3-Cyclopropyl-3-(2-((4-(4-methoxypyrimidin-2-yl)cyclohexyl)methoxy)pyridin-4-yl)propanoic acid], the EC50 at rat GPR40 was found to be 1110 nM; on human GPR40, 244 nM.

As to `COc1ccc(F)c([C@H]2CC[C@H](COc3ccnc(C(CC(=O)O)C4CC4)c3)CC2)c1` (stereo partly shown) [Cpd 34, 3-Cyclopropyl-3-(4-(((1r,4r)-4-(2-fluoro-5-methoxyphenyl)cyclohexyl)methoxy)pyridin-2-yl)propanoic acid], the results for the EC50 on rat GPR40 and on human GPR40 were 282 nM and 62.4 nM, respectively.

`COc1ccc(F)c([C@H]2CC[C@H](CCc3cccc([C@@H](CC(=O)O)C4CC4)c3)CC2)c1` [Cpd 36, (S)-3-Cyclopropyl-3-(3-(2-((1r,4R)-4-(2-fluoro-5-methoxyphenyl)cyclohexyl)ethyl)phenyl) propanoic acid]: the EC50 on rat GPR40 stood at 9.2 nM; at human GPR40, 1.7 nM.

As to `COc1ccc(F)c([C@]2(O)CC[C@@H](COc3cccc([C@@H](CC(=O)O)C4CC4)c3)CC2)c1` [Cpd 3, (S)-3-Cyclopropyl-3-(3-(((1s,4R)-4-(2-fluoro-5-methoxyphenyl)-4-hydroxycyclohexyl)methoxy)phenyl)propanoic acid], the EC50 at rat GPR40 was found to be 160 nM; at human GPR40, 24.8 nM.

For the molecule `COc1cccc(C2CCC(COc3cccc([C@H](C4CC4)C(C)(F)C(=O)O)c3)CC2)c1` (stereo partly drawn) [Cpd 66, (3S)-3-Cyclopropyl-2-fluoro-3-(3-((4-(3-methoxyphenyl)cyclohexyl)methoxy)phenyl)-2-methylpropanoic acid], the results for the EC50 at rat GPR40 and at human GPR40 were 0.4 nM and 0.25 nM, respectively.

For `COc1ccc(F)c(C2CCC(COc3cccc([C@@H](CC(=O)O)C4CC4)c3)C(CC(C)C)C2)c1` (stereo partly drawn) [Cpd 29, (3S)-3-Cyclopropyl-3-(3-((4-(2-fluoro-5-methoxyphenyl)-2-isobutylcyclohexyl)methoxy)phenyl)propanoic acid], the EC50 came to 40.9 nM at rat GPR40 and 17.9 nM at human GPR40.

Consider `COc1ccc(F)c([C@H]2CC[C@H](COc3cccc([C@H](C4CC4)[C@](C)(F)C(=O)O)c3)CC2)c1` [Cpd 60, (2S,3S)-3-Cyclopropyl-2-fluoro-3-(3-(((1r,4S)-4-(2-fluoro-5-methoxyphenyl)cyclohexyl)methoxy)phenyl)-2-methylpropanoic acid], for which the EC50 on rat GPR40 stood at 6.88 nM; at human GPR40, 6.05 nM.

For the molecule `COc1ccc(Cl)c(C2CCC(COc3cccc([C@H](C4CC4)[C@@](C)(F)C(=O)O)c3)CC2)c1` (stereo partly drawn) [Cpd 64, (2R,3S)-3-(3-((4-(2-Chloro-5-methoxyphenyl)cyclohexyl)methoxy)phenyl)-3-cyclopropyl-2-fluoro-2-methylpropanoic acid], the values for the EC50 on rat GPR40 and on human GPR40 were 0.56 nM and 0.19 nM, respectively.

With `COc1ccc(F)c([C@H]2CC[C@@H](COc3cc(C(CC(=O)O)C4CC4)ccn3)CC2)c1` (stereo partly shown) [Cpd 5, 3-Cyclopropyl-3-(2-(((1 s,4s)-4-(2-fluoro-5-methoxyphenyl)cyclohexyl)methoxy)pyridin-4-yl)propanoic acid], the EC50 at rat GPR40 turned out to be 146 nM; at human GPR40, 75.6 nM.

In the case of `CCc1ccc(Cl)c(C2CCC(COc3cccc([C@H](C4CC4)C(C)(F)C(=O)O)c3)CC2)c1` (stereo partly drawn) [Cpd 65, (3S)-3-(3-((4-(2-Chloro-5-ethylphenyl)cyclohexyl)methoxy)phenyl)-3-cyclopropyl-2-fluoro-2-methylpropanoic acid], the EC50 on rat GPR40 was determined as 1.75 nM; at human GPR40, 0.59 nM.
